Measurements from patent US12156862B2, “Medicaments for the treatment of vasoconstriction related diseases or disorders” (Sulfateq B.V., priority 2017, dated 2024).

Molecular target: T1, human α1 adrenoceptor subtype D (Homo sapiens, UniProt P25100)
T1 construct: expressed in transfected cells; host or cells: CHO-K1
T1 sequence (P25100 1-572): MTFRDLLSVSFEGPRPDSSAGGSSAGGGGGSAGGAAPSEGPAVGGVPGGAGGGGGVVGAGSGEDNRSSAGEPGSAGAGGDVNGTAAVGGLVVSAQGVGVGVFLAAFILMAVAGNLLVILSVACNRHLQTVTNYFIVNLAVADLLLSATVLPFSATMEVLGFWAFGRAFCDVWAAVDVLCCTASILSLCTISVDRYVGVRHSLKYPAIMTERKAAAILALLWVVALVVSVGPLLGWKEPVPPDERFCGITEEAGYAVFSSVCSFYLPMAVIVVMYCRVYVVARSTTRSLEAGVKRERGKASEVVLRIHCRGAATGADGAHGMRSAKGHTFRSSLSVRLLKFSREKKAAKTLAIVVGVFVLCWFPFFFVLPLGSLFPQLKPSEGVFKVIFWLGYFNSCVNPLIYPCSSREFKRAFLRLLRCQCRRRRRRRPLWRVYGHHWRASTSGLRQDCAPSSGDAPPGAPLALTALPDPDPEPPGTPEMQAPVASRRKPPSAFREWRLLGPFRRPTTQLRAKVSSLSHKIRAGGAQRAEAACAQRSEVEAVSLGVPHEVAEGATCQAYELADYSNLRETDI
Assay: Phenylephrine-induced intracellular calcium (FLIPR Calcium 6) in CHO cells, α1D
Assay type: cell-based
Experimental: CHO-K1 cells were stably transfected with a plasmid containing human al-AR subtypes A, B and D in separate cell lines in DMEM-F12 medium with 10% FBS, 1% penicillin-streptomycin and 200 μg/mL Geneticin (G418, Invitrogen, Carlsbad, CA).
On the next day, CHO cells were treated with either vehicle (0.1% DMSO) or SUL-121 enantiomers for 30 min at 37° C. and stimulated with a 3-fold dilution series of PE (20 μM-100 pM). [Ca^2], was measured using the fluorescent FLIPR Calcium 6 assay kit (Molecular Devices) in immortalized CHO cells stably expressing the α1 adrenoceptor.
Initially, calcium responses induced by non-cumulative concentration series of phenylephrine were investigated using fluorescent measurements in α1A adrenoceptor-overexpressing CHO cells treated with SUL-150 and SUL-151 (FIG. 4). Fluorescent measurement data was processed and analyzed in SoftMax Pro 7 and expressed as % of baseline AUC with a 3-fold multiplier using an average of first 10 measurement points as baseline.

Structure (SMILES): Cc1c(C)c2c(c(C)c1O)CC[C@](C)(C(=O)N1CCNCC1)O2 [SUL-150, (R)(6-hydroxy-2,5,7,8-tetramethylchroman-2-yl)(piperazin-1-yl)methanone]
- logEC50 of phenylephrine-induced calcium influx, α1D (10 μM test compound): −7.37 ± 0.10
- logEC50 of phenylephrine-induced calcium influx, α1D (30 μM test compound): −7.04 ± 0.06
- logEC50 of phenylephrine-induced calcium influx, α1D (100 μM test compound): −6.80 ± 0.10
- effect on PE-induced calcium transients, α1 adrenoceptor subtype D (in words): shifted dose response curves rightwards
